In experiment [1] the test system is analgesic effect of morphine. In words: animal or person. The settings on record: Mus musculus, sc, read-out: Antagonism with respect to the analgesic effect ID50 a.
In experiment [2] the test system is analgesic effect of morphine. The settings on record: for central effects / central activity (in words): conclusion from Table I; for ID50 a / ID50 c: ratio of analgesic-effect ID50 a to constipating-effect ID50 c; for ID50 a / ID50 c / Antagonism with respect to the analgesic effect ID50 a: (°) inactive up to the maximum injectable dose; for Antagonism with respect to the analgesic effect ID50 a: subcutaneous antagonist, 5 min before 12 mg/kg s.c. morphine, female mice, limits in parentheses, where given, on next line.

Experiment [3] deals with constipating effect of morphine. Nature of the experiment: antagonism to the constipating effect of morphine (charcoal meal test, after A. F. Green, modified). The following applies: for ED50: Mus musculus, sc, read-out: Antagonism with respect to the constipating effect ID50 c; for Antagonism with respect to the constipating effect ID50 c: subcutaneous antagonist, 5 min before 12 mg/kg s.c. morphine, female mice, extrapolated from least squares line log dose-response, limits in parentheses printed on next line.

[4] abbreviates: morphine control group, 12 mg/kg subcutaneous.

Bounds are passed on as bounds.

With `C=CC[N+]1(C)CC[C@]23c4c5ccc(O)c4O[C@H]2C(=O)CC[C@@]3(O)[C@H]1C5` (some centres unmarked) [naloxone bromomethylate], in experiment [1], the ED50 was determined as 5.12 mg/kg. Besides, in experiment [2], the “central effects / central activity (in words)” value is “have a certain central activity” and the “ID50 a / ID50 c” value is listed as 0.47. Besides, the ED50 in experiment [3] turned out to be 10.8 mg/kg.
Consider `C=CC[N+]1(CC=C)CC[C@]23CCCC[C@H]2[C@H]1Cc1ccc(O)cc13` [levallorphan bromoallylate, bromoallylate of levallorphan], for which, in experiment [2], the “ID50 a / ID50 c” value is above 5.11 and the “Antagonism with respect to the analgesic effect ID50 a” value is given as above 80 mg/kg.
With `C=CC[N+]1(CC=C)CC[C@]23CCCC[C@H]2[C@H]1Cc1ccc(O)cc13` [levallorphan iodoallylate, iodoallylate of levallorphan], in experiment [2], the “ID50 a / ID50 c” value was above 3.61 and the “Antagonism with respect to the analgesic effect ID50 a” value was above 60 mg/kg. The “Antagonism with respect to the constipating effect ID50 c” value in experiment [3] is given as 16.68 mg/kg.
As to `C=CCN1CC[C@]23c4c5ccc(O)c4O[C@H]2C(=O)CC[C@@]3(O)[C@H]1C5` [naloxone, N-allylnoroxymorphone], the ED50 in experiment [1] is 0.083 mg/kg; in experiment [3] it was 0.75 mg/kg. For the same compound, the “central effects / central activity (in words)” value in experiment [2] is recorded as “very active”. In experiment [2] (mouse, in vivo), the “ID50 a relative to ID50 c (in words)” value was “much more active as antagonist of the analgesic effect than antagonist of the constipating effect”. Further, the “ID50 a / ID50 c” value in experiment [2] was found to be 0.11.
Regarding `C=CC[N+]1(C)CC[C@]23c4c5ccc(O)c4O[C@H]2C(=O)CC[C@@]3(O)[C@H]1C5.COS(=O)(=O)[O-]` (some centres unmarked) [naloxone sulfomethylate], in experiment [2], the “central effects / central activity (in words)” value is “have a certain central activity”, the “ID50 a / ID50 c” value was found to be 1.68 and the “Antagonism with respect to the analgesic effect ID50 a” value was 5.039 mg/kg. Also, the “Antagonism with respect to the constipating effect ID50 c” value in experiment [3] is listed as 2.99 mg/kg.
Take `CN1CC[C@]23c4c5ccc(O)c4O[C@H]2[C@@H](O)C=C[C@H]3[C@H]1C5` [morphine]: in experiment [2] (setting [4]), the “animals showing the increase of the threshold of sensitivity” value amounted to 100% and the “average increase of the threshold of sensitivity” value came to 100%.
